This note sets out measurements from patent US6812377B2, “Genetic engineering of syringyl-enriched lignin in plants” (Board of Control of Michigan Technological University, priority 2000, dated 2004).

For assay [1], the system named is PtSAD recombinant protein. The experiment in a line: SAD enzyme activity assay, single and mixed substrates (HPLC-MS). The assay is classed as biochemical, Populus tremuloides. The conditions noted are these: mixture of coniferaldehyde and sinapaldehyde, pH 7.0. The protocol: After 10 min at 30° C., the reaction was terminated and extracted with 0.5 ml ethyl acetate. The extraction was repeated 4 times and the combined ethyl acetate was evaporated and dissolved in the HPLC mobile phase for LC-MS identification and quantitation of the reaction products as we did before (Osakabe et al., 1999; Li et al. 2000). […] The SAD reactions with mixed substrates, sinapaldehyde and coniferyl aldehyde, were therefore conducted at the optimal pH 7.0 under above-described conditions. […] To characterize the enzyme pH optima, the substrate and recombinant PtCAD or PtSAD protein concentrations described above were used in sodium phosphate buffers, pH 5 to 8.5. All reactions were for 10 minutes at 30° C. An aliquot of 100 μL of reaction mixture was injected directly onto a Supelcosil LC-ABZ column (15 cm×4.6 mm×5 μm; Supelco, Bellefonte, Pa.) with automatic sample injection and separated isocratically with a Hewlett-Packard (HP) 1100 liquid chromatography system at 40° C. and a flow rate of 0.25 mL/min. […] The reaction products were identified and confirmed by comparing the ion fragmentation patterns of the product and the authentic standard in MS scanning mode at 70 V. The product quantity and Km, Vmax, kcat, and apparent inhibition constant (Ki) values (means±SE) were determined as described (Osakabe et al., 1999; Li et al., 2000). The results of the inhibition kinetics for both the CAD enzyme (i.e. Table 2) and the SAD enzyme (i.e., Table 3) using a variety of substrates are illustrated below.

Assay [2] has as its target recombinant PtCAD protein (Populus tremuloides, UniProt Q9M632). The experiment in a line: PtCAD enzyme activity with a mixture of coniferaldehyde and sinapaldehyde (HPLC-MS). The assay is classed as biochemical. From the text:
A guaiacyl pathway gene encoding coniferyl alcohol dehydrogenase (CAD, FIG. 1) from Populus tremuloides (GenBank #AF217957) was first cloned. This cDNA was designated as PtCAD (GenBank #AF217957). E. coli-expressed recombinant PtCAD protein was characterized for its catalytic activity with coniferaldehyde and sinapaldehyde. Because monolignol biosynthetic pathway intermediates are present together in lignifying tissues (Osakabe et al., 1999; Li et al. 2000), the PtCAD enzyme activity with a mixture of coniferaldehyde and sinapaldehyde was assayed. As shown in FIG. 5 (a) and (c), the reaction mixture was separated by HPLC after the enzyme reaction. […]
An aliquot of 100 μL of reaction mixture was injected directly onto a Supelcosil LC-ABZ column (15 cm×4.6 mm×5 μm; Supelco, Bellefonte, Pa.) with automatic sample injection and separated isocratically with a Hewlett-Packard (HP) 1100 liquid chromatography system at 40° C. and a flow rate of 0.25 mL/min. […] The reaction products were identified and confirmed by comparing the ion fragmentation patterns of the product and the authentic standard in MS scanning mode at 70 V. The product quantity and Km, Vmax, kcat, and apparent inhibition constant (Ki) values (means±SE) were determined as described (Osakabe et al., 1999; Li et al., 2000). […]

Sequence of recombinant PtCAD protein (Q9M632 entry or part of it): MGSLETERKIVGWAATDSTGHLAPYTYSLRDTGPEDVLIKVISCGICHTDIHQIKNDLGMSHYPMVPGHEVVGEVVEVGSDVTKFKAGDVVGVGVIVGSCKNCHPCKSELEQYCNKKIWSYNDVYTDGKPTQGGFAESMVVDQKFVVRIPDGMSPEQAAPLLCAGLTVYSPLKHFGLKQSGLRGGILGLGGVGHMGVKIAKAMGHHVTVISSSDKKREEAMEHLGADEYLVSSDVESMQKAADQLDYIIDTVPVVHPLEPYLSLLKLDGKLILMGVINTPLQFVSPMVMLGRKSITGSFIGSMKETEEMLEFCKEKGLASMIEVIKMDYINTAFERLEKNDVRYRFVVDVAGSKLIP

As to `COc1cc(/C=C/C=O)ccc1O` [Coniferaldehyde], in assay [1], the “reaction of PtSAD with the substrate in a mixture” value is on record as “would not react”. Moreover, the “reaction of PtCAD with the substrate in a mixture” value in assay [2] was “Only coniferyl alcohol was formed”.
